These results are taken from patent publication US20220298138A1, “ENZYME INHIBITORS” (KALVISTA PHARMACEUTICALS LIMITED, priority 2019, published 2022).

In the test the target is T1, Human Factor XIIa (Homo sapiens, UniProt P00748).
T1 construct: purchased Enzyme Research Laboratories
T1 sequence (P00748 373-615 limits assumed): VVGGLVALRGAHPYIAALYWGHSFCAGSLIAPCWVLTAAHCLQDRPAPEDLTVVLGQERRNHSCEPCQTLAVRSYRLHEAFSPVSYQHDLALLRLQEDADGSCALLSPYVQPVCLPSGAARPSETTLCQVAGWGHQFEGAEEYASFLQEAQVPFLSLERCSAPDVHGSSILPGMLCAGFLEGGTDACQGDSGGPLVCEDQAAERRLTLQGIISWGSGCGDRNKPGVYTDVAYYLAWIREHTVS
The test can be described thus: Factor XIIa inhibitory activity in vitro (fluorogenic substrate H-DPro-Phe-Arg-AFC). The format is biochemical. Conditions: 25° C., class symbols, read-out: Human FXIIa IC50. The method, then:
Determination of the % Inhibition for FXIIa
Human Factor XIIa (Enzyme Research Laboratories) was incubated at 25° C. with the fluorogenic substrate H-DPro-Phe-Arg-AFC and various concentrations of the test compound. Residual enzyme activity (initial rate of reaction) was determined by measuring the change in […] at 410 nm and the IC50 value for the test compound was determined.
The IC50 is the concentration at which inhibition is half-maximal. For the molecule `Nc1nccc2cc(CNC(=O)[C@H](Cc3ccc(F)c(F)c3)NC(=O)Cc3nc(-c4cccnc4)n[nH]3)ccc12` [Example 3.32], the IC50 lay in the range of 10 to 40 µM.
With `CC(C)c1cc(C(=O)N[C@@H](Cc2ccc(F)c(F)c2)C(=O)NCc2ccc3c(N)nccc3c2)[nH]n1` [Example 0.54] the figure was 3 to 10 µM.
As for `CC(C(=O)N[C@@H](Cc1ccc(F)c(F)c1)C(=O)NCc1ccc2c(N)nccc2c1)N1CCCC1` (some centres unmarked) [Example 5.103], the figure is 1 to 3 µM; as for `CC(C)N(C)CC(=O)N[C@@H](Cc1ccc(F)c(F)c1)C(=O)NCc1ccc2c(N)nccc2c1` [Example 3.08], 0.28 to 1 µM; as for `C[C@H](NC(=O)[C@@H](CCc1ccccc1)NC(=O)c1ccccc1)C(=O)NCc1ccc2c(N)nccc2c1` [Example 6.26], 10 to 40 µM.
With `C[C@@H]1CCC[C@H](C)N1CC(=O)N[C@@H](CC1CCCCC1)C(=O)NCc1ccc2c(N)nccc2c1` [Example 3.16] the figure was 3 to 10 µM.
`Nc1nccc2cc(CNC(=O)[C@H](Cc3ccc(F)c(F)c3)NC(=O)C(F)F)ccc12` [Example 0.66]: the IC50 lay within 3 to 10 µM.
With `Nc1nccc2cc(CNC(=O)[C@H](Cc3ccc(F)c(F)c3)NC(=O)c3ccc4c(c3)CC=C(O)N4)ccc12` [Example 0.76] the figure was 10 to 40 µM; with `CC(C)N[C@H](CCc1ccccc1)C(=O)N[C@@H](C)C(=O)NCc1cc2c(Cl)cccc2s1` [Example 9.23], 10 to 40 µM; with `C[C@@H]1CCC[C@H](C)N1CC(=O)N1CCCC[C@H]1C(=O)NCc1ccc2c(N)nccc2c1` [Example 32.03], 1 to 3 µM.
As for `CC(C)(NC(=O)[C@H](N)CCc1ccccc1)C(=O)NCc1ccc2c(N)nccc2c1` [Example 6.06], the figure is 0.28 to 1 µM; as for `Nc1nccc2cc(CNC(=O)[C@H](Cc3ccc(F)c(F)c3)NC(=O)c3ccno3)ccc12` [Example 0.30], 10 to 40 µM.
With `Cc1nocc1C(=O)N[C@@H](Cc1ccc(F)c(F)c1)C(=O)NCc1ccc2c(N)nccc2c1` [Example 0.21] the figure was 3 to 10 µM; with `CCC(C)[C@@H](N)C(=O)N[C@@H](Cc1cccc2ccccc12)C(=O)NCc1ccc2c(N)nccc2c1` (some centres unmarked) [Example 18.101], 1 to 3 µM.
`CCC(C)[C@H](C(=O)N[C@@H](Cc1ccc(F)c(F)c1)C(=O)NCc1ccc2c(N)nccc2c1)N(C)C` (some centres unmarked) [Example 5.101]: the IC50 was in the range of 3 to 10 µM.
As for `CS(=O)(=O)N[C@@H](Cc1ccc(F)c(F)c1)C(=O)NCc1ccc2c(N)nccc2c1` [Example 55.02], the figure is 10 to 40 µM; as for `CC(C)N[C@H](CCc1ccccc1)C(=O)N[C@@H](C)C(=O)NCc1ccc(CN)cc1` [Example 9.10], 3 to 10 µM; as for `Nc1nccc2cc(CNC(=O)[C@@H]3CCCN3C(=O)[C@H](N)CCc3ccccc3)ccc12` [Example 17.02], 0.28 to 1 µM.
As for `Nc1nccc2cc(CNC(=O)[C@H](Cc3ccc(F)c(F)c3)NC(=O)CCn3cc(C(F)(F)F)ccc3=O)ccc12` [Example 3.29], the figure is 10 to 40 µM.
With `Nc1nccc2cc(CNC(=O)[C@H](Cc3ccc(F)c(F)c3)NC(=O)c3cccc(-n4cccn4)c3)ccc12` [Example 0.05] the figure was 3 to 10 µM; with `Nc1nccc2cc(CNC(=O)[C@H](Cc3ccc(F)c(F)c3)NC(=O)c3cccc(-n4ccnc4)c3)ccc12` [Example 0.09], 3 to 10 µM; with `C[C@@H]1CCC[C@H](C)N1CC(=O)N1CC[C@H](C(=O)NCc2ccc3c(N)nccc3c2)C1` [Example 32.06], 10 to 40 µM.
Consider `Cc1cccnc1C(=O)N[C@@H](Cc1ccc(F)c(F)c1)C(=O)NCc1ccc2c(N)nccc2c1` [Example 0.50], for which the IC50 lay in the range of 3 to 10 µM.
As for `CC(C)N(CC(=O)N[C@@H](Cc1ccc(F)c(F)c1)C(=O)NCc1ccc2c(N)nccc2c1)C(C)C` [Example 3.09], the figure is 0.28 to 1 µM.
Take `N#Cc1cccc(C(=O)N[C@@H](Cc2ccc(F)c(F)c2)C(=O)NCc2ccc3c(N)nccc3c2)c1` [Example 0.25]: the IC50 fell in the range of 3 to 10 µM.
Turning to `Nc1nccc2cc(CNC(=O)[C@H](Cc3ccc(F)c(F)c3)NC(=O)COc3cccnc3)ccc12` [Example 20.02], the IC50 was 10 to 40 µM.
As for `C[C@@H]1CCC[C@H](C)N1CC(=O)N[C@@H](Cc1ccc(F)c(F)c1)C(=O)NCc1ccc2[nH]cnc2c1` [Example 3.103], the figure is 10 to 40 µM.
With `CC(C)N[C@H](CCc1ccccc1)C(=O)NCC(=O)NCc1ccc2c(N)nccc2c1` [Example 6.07] the figure was 0.28 to 1 µM; with `CCn1nc(C)cc1C(=O)N[C@@H](Cc1ccc(F)c(F)c1)C(=O)NCc1ccc2c(N)nccc2c1` [Example 0.55], 10 to 40 µM.
As for `CC(C)c1ncncc1C(=O)N[C@@H](Cc1ccc(F)c(F)c1)C(=O)NCc1ccc2c(N)nccc2c1` [Example 0.89], the figure is 10 to 40 µM; as for `Nc1nccc2cc(CNC(=O)[C@H](Cc3ccc(F)c(F)c3)NC(=O)CCc3nnc(-c4ccccc4)o3)ccc12` [Example 0.51], 10 to 40 µM; as for `C[C@@H]1CCC[C@H](C)N1CC(=O)N[C@@H](Cc1ccc(F)c(F)c1)C(=O)NC1CCN(c2ccncc2)CC1` [Example 34.02], 3 to 10 µM.
For the molecule `Nc1nccc2cc(CNC(=O)[C@H](Cc3ccc(F)c(F)c3)NC(=O)c3cccnn3)ccc12` [Example 0.15], the IC50 was in the range of 3 to 10 µM.
As for `CCCn1ncc(C(=O)N[C@@H](Cc2ccc(F)c(F)c2)C(=O)NCc2ccc3c(N)nccc3c2)c1C` [Example 0.70], the figure is 10 to 40 µM; as for `C[C@@H]1CCC[C@H](C)N1CC(=O)N1CC[C@@H](C(=O)NCc2ccc3c(N)nccc3c2)C1` [Example 32.07], 10 to 40 µM; as for `CC1CCCC(C)N1CC(=O)N[C@@H](Cc1cccc(F)c1)C(=O)NCc1ccc2c(N)nccc2c1` (some centres unmarked) [Example 3.04], 0.1 to 0.279 µM.
With `Nc1nccc2cc(CNC(=O)[C@H](Cc3ccc(F)c(F)c3)NC(=O)CCn3cncn3)ccc12` [Example 20.07] the figure was 10 to 40 µM.
With `CNS(=O)(=O)c1cccc(C(=O)N[C@@H](Cc2ccc(F)c(F)c2)C(=O)NCc2ccc3c(N)nccc3c2)c1` [Example 0.60] the figure was 3 to 10 µM; with `Nc1nccc2cc(CNC(=O)[C@H](Cc3ccc(F)c(F)c3)NC(=O)CCCOCc3ccccc3)ccc12` [Example 0.24], 10 to 40 µM; with `CC(C)(C)OC(=O)N[C@H](CCc1ccccc1)C(=O)N1CCC[C@H]1C(=O)NCc1ccc2c(N)nccc2c1` [Example 17.01], 3 to 10 µM.
For `Nc1nccc2cc(CNC(=O)[C@H](Cc3ccc(F)c(F)c3)NC(=O)c3ccc(O)nc3)ccc12` [Example 0.62], the IC50 is 3 to 10 µM.
As for `C[C@@H]1CCC[C@H](C)N1CC(=O)NCC(=O)NCc1ccc2c(N)nccc2c1` [Example 39.03], the figure is 10 to 40 µM; as for `Nc1nccc2cc(CNC(=O)[C@H](Cc3ccc(F)c(F)c3)NC(=O)c3ccn4ncnc4n3)ccc12` [Example 0.93], 1 to 3 µM; as for `CC1CCCC(C)N1CC(=O)N[C@@H](Cc1ccc(F)c(F)c1)C(=O)NCc1ccnc(N)c1` (some centres unmarked) [Example 3.102], 10 to 40 µM.
As for `Nc1nccc2cc(CNC(=O)[C@H](Cc3ccc(F)c(F)c3)NC(=O)c3cccnc3)ccc12` [Example 0.23], the figure is 10 to 40 µM.
As for `C[C@H](NC(=O)[C@@H](CCc1ccccc1)NS(C)(=O)=O)C(=O)NCc1cnc2[nH]cc(Cl)c2c1` [Example 9.21], the figure is 10 to 40 µM.
On to `C[C@@H]1CCC[C@H](C)N1CC(=O)N[C@@H](Cc1ccc(F)c(F)c1)C(=O)NCc1ccc2c(N)noc2c1` [Example 3.105, (2S)—N-[(3-amino-1,2-benzoxazol-6-yl)methyl]-3-(3,4-difluorophenyl)-2-{2-[(2R,6S)-2,6-dimethylpiperidin-1-yl]acetamido}propanamide], for which the IC50 lay in the range of 10 to 40 µM.
In the case of `C[C@@H]1CCC[C@H](C)N1CC(=O)N[C@@H](Cc1ccc(F)c(F)c1)C(=O)NCc1ccc2[nH]ncc2c1` [Example 34.07], the IC50 was 10 to 40 µM.
With `CC(C)(C)OC(=O)N[C@H](CCc1ccccc1)C(=O)NC(C)(C)C(=O)NCc1ccc2c(N)nccc2c1` [Example 6.03] the figure was 10 to 40 µM; with `Nc1nccc2cc(CNC(=O)[C@H](Cc3ccc(F)c(F)c3)NC(=O)c3ccc(-c4cncnc4)cc3)ccc12` [Example 0.27], 10 to 40 µM.
`CN1CCN(CC(=O)N[C@@H](Cc2ccc(F)c(F)c2)C(=O)NCc2ccc3c(N)nccc3c2)CC1` [Example 3.40]: the half-inhibitory concentration (IC50) fell in the range of 10 to 40 µM.
With `C[C@H](NC(=O)[C@@H](CCc1ccccc1)NC1CCOCC1)C(=O)NCc1ccc2[nH]cc(Cl)c2c1` [Example 9.17] the figure was 3 to 10 µM.
As for `Nc1nccc2cc(CNC(=O)[C@H](Cc3ccc(F)c(F)c3)NC(=O)c3ccc(-n4ccnc4)nc3)ccc12` [Example 0.10], the figure is 10 to 40 µM.
As to `Cc1ccc2cc(C(=O)N3CCC(C(=O)NCc4ccc5c(N)nccc5c4)C3)ccc2n1` (centres unmarked) [Example 32.01], the IC50 is 10 to 40 µM.
With `Cn1cc(C(=O)N[C@@H](Cc2ccc(F)c(F)c2)C(=O)NCc2ccc3c(N)nccc3c2)cn1` [Example 0.03] the figure was 10 to 40 µM; with `Nc1nccc2cc(CNC(=O)[C@H](Cc3ccc(F)c(F)c3)NC(=O)C3=CCC(=O)NN3)ccc12` [Example 0.44], 3 to 10 µM; with `Nc1nccc2cc(CNC(=O)[C@H](Cc3ccc(F)c(F)c3)NC(=O)c3ccc(Cn4cnnn4)cc3)ccc12` [Example 0.67], 1 to 3 µM.
On to `Nc1nccc2cc(CNC(=O)[C@H](Cc3ccc(F)c(F)c3)NC(=O)C[C@H]3CCCO3)ccc12` [Example 3.36], for which the IC50 fell in the range of 10 to 40 µM.
Consider `CC1CCCC(C)N1CC(=O)NCCC(=O)NCc1ccc2c(N)nccc2c1` (centres unmarked) [Example 39.01], for which the half-inhibitory concentration (IC50) fell in the range of 10 to 40 µM.
